Measurements as given in US20240316022A1 (TYRA BIOSCIENCES, INC., priority 2021, published 2024).

What was measured:
Test in all cases: Kinase binding assay (kinase-tagged T7 phage, qPCR), Kd
[1] = biological target: T1, FGFR4 (Homo sapiens, UniProt P22455); conditions: read-out: FGFR4 (Kd nM)
T1 construct: made in house; host or cells: E. coli derived from BL21, infected with T7 phage

[2] = biological target: T2, FGFR3 (Homo sapiens, UniProt P22607); conditions: read-out: FGFR3 (Kd nM)
T2 construct: made in house; host or cells: E. coli derived from BL21, infected with T7 phage
T2 sequence (P22607 23-806): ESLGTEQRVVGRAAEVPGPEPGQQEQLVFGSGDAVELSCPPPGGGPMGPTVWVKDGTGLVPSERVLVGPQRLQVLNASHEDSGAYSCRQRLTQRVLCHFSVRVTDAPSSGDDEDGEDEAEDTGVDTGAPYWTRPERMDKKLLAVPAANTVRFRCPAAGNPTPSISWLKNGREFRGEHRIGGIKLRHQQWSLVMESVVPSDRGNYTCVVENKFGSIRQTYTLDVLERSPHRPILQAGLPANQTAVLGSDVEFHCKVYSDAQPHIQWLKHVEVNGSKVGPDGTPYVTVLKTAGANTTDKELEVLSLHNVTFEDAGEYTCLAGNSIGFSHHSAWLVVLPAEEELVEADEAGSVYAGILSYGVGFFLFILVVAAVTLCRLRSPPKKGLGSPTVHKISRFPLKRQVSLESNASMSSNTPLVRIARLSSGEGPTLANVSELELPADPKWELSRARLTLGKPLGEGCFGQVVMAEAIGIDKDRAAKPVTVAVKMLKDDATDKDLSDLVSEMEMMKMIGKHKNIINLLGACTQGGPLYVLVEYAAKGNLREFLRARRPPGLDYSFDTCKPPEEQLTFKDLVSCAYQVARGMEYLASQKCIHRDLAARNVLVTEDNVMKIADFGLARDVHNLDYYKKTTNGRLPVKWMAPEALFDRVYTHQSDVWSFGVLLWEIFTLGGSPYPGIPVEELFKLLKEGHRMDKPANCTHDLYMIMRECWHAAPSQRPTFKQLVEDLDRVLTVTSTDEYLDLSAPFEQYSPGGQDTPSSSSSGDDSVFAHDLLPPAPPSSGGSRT

[3] = biological target: T3, FGFR2 (Homo sapiens, UniProt P21802); conditions: read-out: FGFR2 (Kd nM)
T3 construct: made in house; host or cells: E. coli derived from BL21, infected with T7 phage
T3 sequence (P21802 22-821): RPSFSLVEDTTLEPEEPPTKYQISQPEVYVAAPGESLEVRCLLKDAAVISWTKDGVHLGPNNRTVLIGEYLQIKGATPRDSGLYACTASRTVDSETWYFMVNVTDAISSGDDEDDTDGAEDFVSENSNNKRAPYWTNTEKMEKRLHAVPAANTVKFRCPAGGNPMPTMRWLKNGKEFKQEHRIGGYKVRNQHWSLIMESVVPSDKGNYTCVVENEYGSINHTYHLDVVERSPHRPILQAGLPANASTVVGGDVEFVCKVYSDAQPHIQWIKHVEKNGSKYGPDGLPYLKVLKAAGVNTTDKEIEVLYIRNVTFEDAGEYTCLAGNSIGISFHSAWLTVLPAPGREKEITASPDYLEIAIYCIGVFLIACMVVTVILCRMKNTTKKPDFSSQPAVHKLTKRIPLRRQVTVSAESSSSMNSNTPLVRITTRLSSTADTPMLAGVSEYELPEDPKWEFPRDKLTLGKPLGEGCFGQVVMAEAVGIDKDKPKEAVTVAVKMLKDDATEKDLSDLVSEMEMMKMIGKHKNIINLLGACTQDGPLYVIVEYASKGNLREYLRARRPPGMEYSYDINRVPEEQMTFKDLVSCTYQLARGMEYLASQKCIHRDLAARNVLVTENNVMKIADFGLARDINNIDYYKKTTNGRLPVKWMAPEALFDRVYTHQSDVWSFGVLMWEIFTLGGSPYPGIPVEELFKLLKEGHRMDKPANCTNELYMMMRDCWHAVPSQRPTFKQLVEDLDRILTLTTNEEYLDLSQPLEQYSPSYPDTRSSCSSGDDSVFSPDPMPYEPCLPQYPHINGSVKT

[4] = biological target: T4, FGFR1 (Homo sapiens, UniProt P11362); conditions: read-out: FGFR1 (Kd nM)
T4 construct: made in house; host or cells: E. coli derived from BL21, infected with T7 phage
T4 sequence (P11362 22-822): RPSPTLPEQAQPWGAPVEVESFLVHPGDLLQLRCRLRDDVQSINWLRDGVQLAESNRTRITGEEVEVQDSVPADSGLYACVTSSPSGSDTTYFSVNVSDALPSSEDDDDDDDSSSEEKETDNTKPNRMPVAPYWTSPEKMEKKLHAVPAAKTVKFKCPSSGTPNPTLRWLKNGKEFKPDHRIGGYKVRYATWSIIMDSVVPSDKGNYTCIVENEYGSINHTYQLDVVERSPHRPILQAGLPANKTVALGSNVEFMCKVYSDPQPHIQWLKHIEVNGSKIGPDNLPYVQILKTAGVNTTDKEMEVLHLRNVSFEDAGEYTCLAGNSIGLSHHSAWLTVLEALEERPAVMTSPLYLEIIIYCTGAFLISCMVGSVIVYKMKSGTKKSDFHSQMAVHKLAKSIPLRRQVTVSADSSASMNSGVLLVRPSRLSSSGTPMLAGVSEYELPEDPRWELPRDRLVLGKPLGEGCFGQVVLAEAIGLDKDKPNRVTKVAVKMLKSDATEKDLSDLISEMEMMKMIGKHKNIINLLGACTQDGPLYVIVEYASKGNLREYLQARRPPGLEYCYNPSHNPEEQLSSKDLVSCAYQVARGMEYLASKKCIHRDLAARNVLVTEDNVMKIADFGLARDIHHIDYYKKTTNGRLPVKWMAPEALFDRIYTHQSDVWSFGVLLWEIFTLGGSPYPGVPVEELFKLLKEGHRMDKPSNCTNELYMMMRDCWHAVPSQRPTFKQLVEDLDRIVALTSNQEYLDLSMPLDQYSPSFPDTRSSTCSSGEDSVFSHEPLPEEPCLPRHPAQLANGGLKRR

T1 sequence (P22455 22-802): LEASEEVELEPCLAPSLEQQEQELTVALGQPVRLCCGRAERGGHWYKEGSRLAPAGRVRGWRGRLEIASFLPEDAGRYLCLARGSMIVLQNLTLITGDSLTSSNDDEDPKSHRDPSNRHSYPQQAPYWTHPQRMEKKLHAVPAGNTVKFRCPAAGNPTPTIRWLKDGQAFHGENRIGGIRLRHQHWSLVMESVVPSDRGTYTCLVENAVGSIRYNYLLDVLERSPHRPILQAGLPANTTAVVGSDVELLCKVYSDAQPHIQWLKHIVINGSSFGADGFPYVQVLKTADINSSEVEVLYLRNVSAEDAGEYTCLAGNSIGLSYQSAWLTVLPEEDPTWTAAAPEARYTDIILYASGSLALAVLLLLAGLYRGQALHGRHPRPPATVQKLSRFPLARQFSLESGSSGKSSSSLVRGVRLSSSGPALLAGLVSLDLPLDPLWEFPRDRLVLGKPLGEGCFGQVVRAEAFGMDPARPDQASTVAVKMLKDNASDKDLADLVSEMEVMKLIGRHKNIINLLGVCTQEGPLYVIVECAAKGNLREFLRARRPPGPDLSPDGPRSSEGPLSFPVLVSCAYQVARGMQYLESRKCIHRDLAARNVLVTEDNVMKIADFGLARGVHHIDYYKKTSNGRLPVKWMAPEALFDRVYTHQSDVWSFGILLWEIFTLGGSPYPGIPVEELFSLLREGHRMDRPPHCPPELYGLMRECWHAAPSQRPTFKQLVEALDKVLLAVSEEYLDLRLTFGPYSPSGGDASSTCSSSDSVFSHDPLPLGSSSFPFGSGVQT

Row | Kd [1] [nM] | Kd [2] [nM] | Kd [3] [nM] | Kd [4] [nM] | Structure (SMILES)
1 | 0.1 to 100 | > 1000 | > 1000 | > 1000 | C[C@@H](Oc1ccc2[nH]nc(-c3cnc(N)c(OC(F)(F)F)c3)c2c1)c1c(Cl)cncc1Cl [Example 32, 5-[5-[(1R)-1-(3,5-dichloro-4-pyridyl)ethoxy]-1H-indazol-3-yl]-3-(trifluoro-methoxy)pyridin-2-amine]
2 | 0.1 to 100 | 100 to 250 | 250 to 1000 | 250 to 1000 | COc1cc(-c2n[nH]c3ccc(O[C@H](C)c4c(C)cnnc4C)cc23)cc(C#N)n1 [Example 100, (R)-4-(5-(1-(3,5-dimethylpyridazin-4-yl)ethoxy)-1H-indazol-3-yl)-6-methoxypicolinonitrile]
3 | 250 to 1000 | > 1000 | > 1000 | > 1000 | COc1ncc(-c2n[nH]c3ccc(O[C@H](C)c4c(Cl)cncc4Cl)cc23)cc1NC(=O)c1cccc2cccnc12 [Example 3, (R)—N-(5-(5-(1-(3,5-Dichloropyridin-4-yl)ethoxy)-1H-indazol-3-yl)-2-methoxypyridin-3-yl)quinoline-8-carboxamide]
4 | 0.1 to 100 | 250 to 1000 | > 1000 | > 1000 | CCOc1cc(-c2n[nH]c3ccc(O[C@H](C)c4c(Cl)cncc4Cl)cc23)cnc1N [Example 33, 5-[5-[(1R)-1-(3,5-Dichloro-4-pyridyl)ethoxy]-1H-indazol-3-yl]-3-ethoxy-pyridin-2-amine]
5 | 0.1 to 100 | 0.1 to 100 | 0.1 to 100 | 0.1 to 100 | CCN1CCC2(CCc3cc(-c4n[nH]c5ccc(O[C@H](C)c6c(Cl)cncc6Cl)cc45)ccc3O2)CC1 [Example 121, 6-[5-[(1R)-1-(3,5-dichloro-4-pyridyl)ethoxy]-1H-indazol-3-yl]-1′-ethylspiro[chromane-2,4′-piperidine]]
6 | 0.1 to 100 | 100 to 250 | 250 to 1000 | 250 to 1000 | C[C@@H](Oc1ccc2[nH]nc(-c3cnc4c(c3)N(C(=O)N3CCOCC3)CCO4)c2c1)c1c(Cl)cncc1Cl [Example 18, [7-[5-[(1R)-1-(3,5-dichloro-4-pyridyl)ethoxy]-1H-indazol-3-yl]-2,3-dihydropyrido[2,3-b][1,4]oxazin-1-yl]-morpholino-methanone]
7 | 0.1 to 100 | 0.1 to 100 | 0.1 to 100 | 0.1 to 100 | CCN1CCC2(CC1)CC(O)c1cc(-c3n[nH]c4ccc(O[C@H](C)c5c(C)cnnc5C)cc34)ccc1O2 (stereo partly drawn) [Example 107, 6-(5-((R)-1-(3,5-dimethylpyridazin-4-yl)ethoxy)-1H-indazol-3-yl)-1′-ethylspiro[chroman-2,4′-piperidin]-4-ol]
8 | 0.1 to 100 | 0.1 to 100 | 0.1 to 100 | 0.1 to 100 | Cc1cc(-c2n[nH]c3ccc(O[C@H](C)c4c(C)cnnc4C)cc23)cc(C#N)c1OC1CCN(C2COC2)CC1 [Example 113, (R)-5-(5-(1-(3,5-dimethylpyridazin-4-yl)ethoxy)-1H-indazol-3-yl)-3-methyl-2-((1-(oxetan-3-yl)piperidin-4-yl)oxy)benzonitrile]
9 | 0.1 to 100 | > 1000 | > 1000 | > 1000 | CC(C)N1CCOc2ncc(-c3n[nH]c4ccc(O[C@H](C)c5c(Cl)cncc5Cl)cc34)cc21 [Example 141, (R)-7-(5-(1-(3,5-dichloropyridin-4-yl)ethoxy)-1H-indazol-3-yl)-1-isopropyl-2,3-dihydro-1H-pyrido[2,3-b][1,4]oxazine]
10 | 0.1 to 100 | 100 to 250 | 250 to 1000 | 250 to 1000 | CCOc1cc(C#N)cc(-c2n[nH]c3ccc(O[C@H](C)c4c(C)cnnc4C)cc23)c1 [Example 56, 3-[5-[(1R)-1-(3,5-dimethylpyridazin-4-yl)ethoxy]-1H-indazol-3-yl]-5-ethoxy-benzonitrile]
11 | 0.1 to 100 | 0.1 to 100 | 250 to 1000 | 250 to 1000 | COc1c(C)cc(-c2n[nH]c3ccc(O[C@H](C)c4c(Cl)cncc4Cl)cc23)cc1C#N [Example 108]
12 | 0.1 to 100 | 0.1 to 100 | 0.1 to 100 | 0.1 to 100 | C[C@@H](Oc1ccc2[nH]nc(-c3cnc(NC(=O)CN(C)C)c(F)c3)c2c1)c1c(Cl)cncc1Cl [Example 22, N-[5-[5-[(1R)-1-(3,5-dichloro-4-pyridyl)ethoxy]-1H-indazol-3-yl]-3-fluoro-2-pyridyl]-2-(dimethylamino)acetamide]
13 | 0.1 to 100 | 0.1 to 100 | 100 to 250 | 100 to 250 | COc1cc2[nH]nc(-c3cc(C#N)c(OC)c(OC)c3)c2cc1O[C@H](C)c1c(C)cnnc1C [Example 102, (R)-5-(5-(1-(3,5-dimethylpyridazin-4-yl)ethoxy)-6-methoxy-1H-indazol-3-yl)-2,3-dimethoxybenzonitrile]
14 | 250 to 1000 | 250 to 1000 | > 1000 | > 1000 | COc1ncc(-c2n[nH]c3ccc(O[C@H](C)c4c(Cl)cncc4Cl)cc23)cc1NCc1ccccn1 [Example 4, (R)-5-(5-(1-(3,5-Dichloropyridin-4-yl)ethoxy)-1H-indazol-3-yl)-2-methoxy-N-(pyridin-2-ylmethyl)pyridin-3-amine]
15 | 0.1 to 100 | 0.1 to 100 | 100 to 250 | 0.1 to 100 | C[C@@H](Oc1ccc2[nH]nc(-c3ccc(NC(=O)C4CC4)nc3)c2c1)c1c(Cl)cncc1Cl [Example 11, (R)—N-(5-(5-(1-(3,5-Dichloropyridin-4-yl)ethoxy)-1H-indazol-3-yl)pyridin-2-yl)cyclopropanecarboxamide]
16 | 0.1 to 100 | 0.1 to 100 | 250 to 1000 | 250 to 1000 | C[C@@H](Oc1ccc2[nH]nc(-c3cnc4c(c3)N(C(=O)OCCCN(C)C)CCO4)c2c1)c1c(Cl)cncc1Cl [Example 43, 3-(dimethyl-amino)propyl 7-[5-[(1R)-1-(3,5-dichloro-4-pyridyl)ethoxy]-1H-indazol-3-yl]-2,3-dihydro-pyrido[2,3-b][1,4]oxazine-1-carboxylate]
17 | 0.1 to 100 | 250 to 1000 | 100 to 250 | > 1000 | COc1ncc(-c2n[nH]c3ccc(O[C@H](C)c4c(Cl)cncc4Cl)cc23)cc1NC(=O)N1CCOCC1 [Example 5, (R)—N-(5-(5-(1-(3,5-Dichloropyridin-4-yl)ethoxy)-1H-indazol-3-yl)-2-methoxypyridin-3-yl)morpholine-4-carboxamide]
18 | 0.1 to 100 | 0.1 to 100 | 250 to 1000 | 100 to 250 | C[C@@H](Oc1cc2c(-c3cnc(O[C@@H]4CCOC4)c(C#N)c3)n[nH]c2cc1F)c1c(Cl)cncc1Cl [Example 138, 5-(5-((R)-1-(3,5-dichloropyridin-4-yl)ethoxy)-6-fluoro-1H-indazol-3-yl)-2-(((R)-tetrahydrofuran-3-yl)oxy)nicotinonitrile]
19 | 250 to 1000 | > 1000 | > 1000 | > 1000 | COc1cc(C#N)cc(-c2n[nH]c3ccc(O[C@@H](C)c4c(C)cnnc4C)cc23)c1 [Example 55, 3-[5-[(1S)-1-(3,5-dimethylpyridazin-4-yl)ethoxy]-1H-indazol-3-yl]-5-methoxy-benzonitrile]
20 | 0.1 to 100 | 0.1 to 100 | 250 to 1000 | 250 to 1000 | Cc1cnnc(C)c1[C@@H](C)Oc1ccc2[nH]nc(-c3cc(C#N)cc(C4CC4)c3)c2c1 [Example 84, 3-cyclopropyl-5-[5-[(1R)-1-(3,5-dimethyl-pyridazin-4-yl)ethoxy]-1H-indazol-3-yl]benzonitrile]
21 | 0.1 to 100 | 0.1 to 100 | 0.1 to 100 | 100 to 250 | Cc1cnnc(C)c1[C@@H](C)Oc1ccc2[nH]nc(-c3cnc(O[C@H]4CCOC4)c(C#N)c3)c2c1 [Example 127, 5-(5-((R)-1-(3,5-dimethylpyridazin-4-yl)ethoxy)-1H-indazol-3-yl)-2-(((S)-tetrahydrofuran-3-yl)oxy)nicotinonitrile]
22 | 0.1 to 100 | 100 to 250 | 250 to 1000 | 100 to 250 | COc1cc2[nH]nc(-c3cc(C#N)cc(C4CC4)c3)c2cc1O[C@H](C)c1c(C)cnnc1C [Example 117, (R)-3-cyclopropyl-5-(5-(1-(3,5-dimethylpyridazin-4-yl)ethoxy)-6-methoxy-1H-indazol-3-yl)benzonitrile]
23 | 250 to 1000 | > 1000 | > 1000 | > 1000 | COc1ncc(-c2n[nH]c3ccc(O[C@H](C)c4c(Cl)cncc4Cl)cc23)cc1NCc1ccnc(C)c1 [Example 6, (R)-5-(5-(1-(3,5-Dichloropyridin-4-yl)ethoxy)-1H-indazol-3-yl)-2-methoxy-N-((2-methylpyridin-4-yl)methyl)pyridin-3-amine]
24 | 0.1 to 100 | 100 to 250 | 250 to 1000 | > 1000 | CCOCCOc1cc(C#N)cc(-c2n[nH]c3ccc(O[C@H](C)c4c(C)cnnc4C)cc23)c1 [Example 73, 3-[5-[(1R)-1-(3,5-dimethylpyridazin-4-yl)ethoxy]-1H-indazol-3-yl]-5-(2-ethoxyethoxy)-benzonitrile]
25 | > 1000 | > 1000 | > 1000 | > 1000 | Cc1cc(-c2n[nH]c3ccc(O[C@@H](C)c4c(C)cnnc4C)cc23)cc(C#N)n1 [Example 70, 4-[5-[(1S)-1-(3,5-Dimethylpyridazin-4-yl)ethoxy]-1H-indazol-3-yl]-6-methyl-pyridine-2-carbonitrile]
26 | 0.1 to 100 | 250 to 1000 | > 1000 | 250 to 1000 | Cc1cnnc(C)c1[C@@H](C)Oc1ccc2[nH]nc(-c3cc(C#N)cc(C#N)c3)c2c1 [Example 83, 5-[5-[(1R)-1-(3,5-dimethylpyridazin-4-yl)ethoxy]-1H-indazol-3-yl]benzene-1,3-dicarbonitrile]
